Assay results reported in article PMC2747480 (Journal of medicinal chemistry, 2009).
“Also recorded” adds a separate entry of the source. Blank lines part the entries; values can stand above or below the compound they belong to.

Key:
BP3 cells = test: BP3 cells, Annexin V-FITC and propidium iodide assay; settings: result in words
[1] = chemical stability as solid powder at room temperature; type: physicochemical; settings: in air, no ascorbic acid
[2] = system: Bax/Bak double knockout MEF cells (DKO/MEFs); test: Bax/Bak double knockout MEF cytotoxicity, FITC-Annexin V/PI assay; type: cell-based, mouse; settings: 10 μM, result in words
[3] = in vitro microsomal stability; settings: rat microsomes
[4] = in vitro plasma stability
GST-Bcl-2 = GST-Bcl-2 (Homo sapiens, UniProt P10415); test: competitive fluorescence polarization assay; type: binding; settings: relative to compound 2
Sequence of GST-Bcl-2 (P10415 whole entry): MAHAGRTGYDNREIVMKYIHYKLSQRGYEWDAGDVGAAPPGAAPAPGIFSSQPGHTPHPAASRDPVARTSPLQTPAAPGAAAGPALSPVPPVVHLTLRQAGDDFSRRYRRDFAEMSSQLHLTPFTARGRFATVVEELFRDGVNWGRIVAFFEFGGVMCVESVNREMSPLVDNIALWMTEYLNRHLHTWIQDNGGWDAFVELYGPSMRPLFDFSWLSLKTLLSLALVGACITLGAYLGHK

GST–Bcl-XL ΔTM protein = GST–Bcl-XL ΔTM protein (Homo sapiens, UniProt Q07817); test: competitive fluorescence polarization assay; type: binding; settings: relative to compound 2
Sequence of GST–Bcl-XL ΔTM protein (Q07817 1-209 limits assumed, stated change not applied): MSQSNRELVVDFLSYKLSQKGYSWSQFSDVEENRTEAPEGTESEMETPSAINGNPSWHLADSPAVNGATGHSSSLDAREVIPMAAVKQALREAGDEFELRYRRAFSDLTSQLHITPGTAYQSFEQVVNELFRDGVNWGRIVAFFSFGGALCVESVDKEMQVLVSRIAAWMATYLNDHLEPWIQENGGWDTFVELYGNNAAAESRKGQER

[5] = single dose of 100, 75, 50 and 25 mg/kg ip, 14 days, result in words
GST-Mcl-1 = GST-Mcl-1 (Homo sapiens, UniProt Q07820); test: competitive fluorescence polarization assay; type: binding; settings: relative to compound 2
Sequence of GST-Mcl-1 (Q07820 whole entry): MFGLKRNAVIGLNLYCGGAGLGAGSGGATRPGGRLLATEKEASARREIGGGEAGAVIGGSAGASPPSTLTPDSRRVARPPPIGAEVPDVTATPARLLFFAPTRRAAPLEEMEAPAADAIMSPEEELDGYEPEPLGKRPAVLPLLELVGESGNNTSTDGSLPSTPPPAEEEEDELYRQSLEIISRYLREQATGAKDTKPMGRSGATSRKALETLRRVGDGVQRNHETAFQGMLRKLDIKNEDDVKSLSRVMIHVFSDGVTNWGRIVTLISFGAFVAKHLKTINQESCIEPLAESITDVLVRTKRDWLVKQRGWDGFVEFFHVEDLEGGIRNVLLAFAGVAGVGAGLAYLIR

Bcl-XL = Bcl-XL (Homo sapiens, UniProt Q07817); test: Isothermal Titration Calorimetry; type: binding; settings: relative to compound 2
Sequence of Bcl-XL (Q07817 whole entry): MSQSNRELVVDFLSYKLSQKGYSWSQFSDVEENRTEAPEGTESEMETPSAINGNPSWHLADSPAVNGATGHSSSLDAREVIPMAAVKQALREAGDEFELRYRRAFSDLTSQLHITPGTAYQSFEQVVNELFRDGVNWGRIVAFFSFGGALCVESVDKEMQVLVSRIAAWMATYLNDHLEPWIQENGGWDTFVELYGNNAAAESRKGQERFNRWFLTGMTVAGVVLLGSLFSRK

Bfl-1 = molecular target: T1, Bfl-1 (Homo sapiens, UniProt Q16548); test: competitive fluorescence polarization assay; type: binding; settings: relative to compound 2
T1 sequence (Q16548 1-175): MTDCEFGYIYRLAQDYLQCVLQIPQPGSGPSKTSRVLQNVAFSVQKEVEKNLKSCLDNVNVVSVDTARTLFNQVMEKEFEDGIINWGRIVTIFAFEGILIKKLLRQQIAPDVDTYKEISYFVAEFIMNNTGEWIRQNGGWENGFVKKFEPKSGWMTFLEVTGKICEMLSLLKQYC

[6] = result in words; cited from earlier work
Bcl-2 transgenic mice = test: spleen weight reduction in Bcl-2 transgenic mice; type: in vivo, mouse; settings: single ip injection, 72 μmol/kg, result in words
RS11846 cells = test: RS11846 apoptosis, Annexin V-FITC and propidium iodide assay; settings: result in words

SMILES: CN(C)CC[C@H](CSc1ccccc1)Nc1ccc(S(=O)(=O)NC(=O)c2ccc(N3CCN(Cc4ccccc4-c4ccc(Cl)cc4)CC3)cc2)cc1[N+](=O)[O-] [Compound 15]
cytotoxic activity against BP3 cell lines (BP3 cells): no cytotoxic activity

degraded after 60 days at room temperature [1]: 10%
SMILES: CCc1ccc(CCNC(=O)c2c(O)c(O)cc3c(O)c(-c4c(C)cc5c(C(=O)NCCc6ccc(CC)cc6)c(O)c(O)cc5c4O)c(C)cc23)cc1 [Compound 8q, N^5,N^5′-Bis(4-ethylphenethyl)-1,1′,6,6′,7,7′-hexahydroxy-3,3′-dimethyl-2,2′-binaphthyl-5,5′-dicarboxamide]
killing of DKO/MEFs (bax−/−bak−/− cells) [2]: ineffective

SMILES: Cc1cc2c(C(C)C)c(O)c(O)cc2c(O)c1-c1c(C)cc2c(C(C)C)c(O)c(O)cc2c1O [Compound 2, 5,5′-Diisopropyl-1,1′,6,6′,7,7′-hexahydroxy-3,3′-dimethyl-2,2′-binaphthalene, reference compound]
degraded after 60 days at room temperature [1]: ~80%
degraded after 1 h incubation in rat microsomal preparations [3]: 36%
killing of DKO/MEFs (bax−/−bak−/− cells) [2]: reduced cytotoxicity against MEF/DKOs
degraded after 1 h incubation in rat plasma [4]: 47%

SMILES: Cc1cc2c(C(C)C)c(O)c(O)c(C=O)c2c(O)c1-c1c(C)cc2c(C(C)C)c(O)c(O)c(C=O)c2c1O [Compound 1, 1,1′,6,6′,7,7′-Hexahydroxy-5,5′-diisopropyl-3,3′-dimethyl-2,2′-binaphthyl-8,8′-dicarboxaldehyde, reference compound]
killing of DKO/MEFs (bax−/−bak−/− cells) [2]: equally effective in killing both wt MEFs and MEF/DKOs

SMILES: Cc1cc2c(C(=O)NCC(C)c3ccccc3)c(O)c(O)cc2c(O)c1-c1c(C)cc2c(C(=O)NCC(C)c3ccccc3)c(O)c(O)cc2c1O (stereo not shown) [Compound 8r, 1,1′,6,6′,7,7′-Hexahydroxy-3,3′-dimethyl-N^5,N^5′-bis(2-phenylpropyl)-2,2′-binaphthyl-5,5′-dicarboxamide]
degraded after 60 days at room temperature [1]: 10%
degraded after 1 h incubation in rat microsomal preparations [3]: 24%
times higher potency than compound 2, FP Bcl-2 (GST-Bcl-2): approximately 10 times
times more effective than 2, FP displacement Bcl-XL (GST–Bcl-XL ΔTM protein): 5 times
mortality [5]: All mice were alive after 14 days
killing of DKO/MEFs (bax−/−bak−/− cells) [2]: ineffective; also recorded: little cytotoxicity
degraded after 1 h incubation in rat plasma [4]: 4%
times higher potency than compound 2, FP Mcl-1 (GST-Mcl-1): approximately 10 times
times more potent than compound 2, ITC Bcl-XL (Bcl-XL): 15 times
times higher potency than compound 2, FP Bfl-1 (Bfl-1): approximately 10 times

SMILES: Cc1cc2c(C(=O)Cc3ccccc3)c(O)c(O)cc2c(O)c1-c1c(C)cc2c(C(=O)Cc3ccccc3)c(O)c(O)cc2c1O [Compound 3]
GI toxicity in mice [6]: mild GI toxicity

SMILES: Cc1cc2c(CC3CCCC3)c(O)c(O)cc2c(O)c1-c1c(C)cc2c(CC3CCCC3)c(O)c(O)cc2c1O [Compound 12c, 5,5′-Bis(cyclopentylmethyl)-3,3′-dimethyl-2,2′-binaphthyl-1,1′,6,6′,7,7′-hexaol]
in vivo activity in Bcl-2 transgenic mice (Bcl-2 transgenic mice): lower in vivo activity

degraded after 1 h incubation in rat microsomal preparations [3]: 10%
degraded after 1 h incubation in rat plasma [4]: 11%
SMILES: Cc1cc2c(C(=O)NCC3CCCCC3)c(O)c(O)cc2c(O)c1-c1c(C)cc2c(C(=O)NCC3CCCCC3)c(O)c(O)cc2c1O [Compound 8m, N^5,N^5′-Bis(cyclohexylmethyl)-1,1′,6,6′,7,7′-hexahydroxy-3,3′-dimethyl-2,2′-binaphthyl-5,5′-dicarboxamide]
killing of DKO/MEFs (bax−/−bak−/− cells) [2]: ineffective

SMILES: Cc1cc2c(CCc3ccccc3)c(O)c(O)cc2c(O)c1-c1c(C)cc2c(CCc3ccccc3)c(O)c(O)cc2c1O [Compound 12e, 3,3′-Dimethyl-5,5′-diphenethyl-2,2′-binaphthyl-1,1′,6,6′,7,7′-hexaol]
in vivo activity in Bcl-2 transgenic mice (Bcl-2 transgenic mice): lower in vivo activity

SMILES: Cc1cc2c(C(=O)O)c(O)c(O)cc2c(O)c1-c1c(C)cc2c(C(=O)O)c(O)c(O)cc2c1O [Compound 14, 1,1′,6,6′,7,7′-Hexahydroxy-3,3′-dimethyl-2,2′-binaphthyl-5,5′-dicarboxylic acid]
induction of apoptosis of the RS11846 cell line (RS11846 cells): little or no apoptosis

SMILES: Cc1cc2cc(O)c(O)cc2c(O)c1-c1c(C)cc2cc(O)c(O)cc2c1O [Compound 13, 3,3′-Dimethyl-2,2′-binaphthyl-1,1′,6,6′,7,7′-hexaol]
induction of apoptosis of the RS11846 cell line (RS11846 cells): little or no apoptosis

SMILES: Cc1cc2c(C(=O)NC(C)c3ccc(Cl)cc3)c(O)c(O)cc2c(O)c1-c1c(C)cc2c(C(=O)NC(C)c3ccc(Cl)cc3)c(O)c(O)cc2c1O (stereo not shown) [Compound 8k, N^5,N^5′-Bis(1-(4-chlorophenyl)ethyl)-1,1′,6,6′,7,7′-hexahydroxy-3,3′-dimethyl-2,2′-binaphthyl-5,5′-dicarboxamide]
killing of DKO/MEFs (bax−/−bak−/− cells) [2]: ineffective

SMILES: Cc1cc2c(C(=O)NCCc3cccc(Cl)c3)c(O)c(O)cc2c(O)c1-c1c(C)cc2c(C(=O)NCCc3cccc(Cl)c3)c(O)c(O)cc2c1O [Compound 8p, N^5,N^5′-Bis(3-chlorophenethyl)-1,1′,6,6′,7,7′-hexahydroxy-3,3′-dimethyl-2,2′-binaphthyl-5,5′-dicarboxamide]
killing of DKO/MEFs (bax−/−bak−/− cells) [2]: ineffective
